Measurements from the supplement of paper PMC10307832.

Columns and labels:
Test in all cases: relative viability (nuclei count vs DMSO), 5 days (fraction); higher = more cells survive
ChaGo-K-1 = tested on: ChaGo-K-1
How it was run: (§1)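 Nuclei were stained with Hoechst during a one-step fixation (final 0.05% Triton X-100, 1% formaldehyde, 1 ug/ml Hoechst) carried out 5 days after dosing, then counted on 4× images. The cells, lung cancer lines in 1536-well plates, had been dosed by pin tool the day after seeding with one drug alone or a fixed anchor-drug dose plus five library-drug doses (not always all listed) in √10 steps. Relative viability is the nuclei count in treated wells divided by that in vehicle wells, and each value is the median of duplicate plates.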

EMC-BAC-2 = tested on: EMC-BAC-2
How it was run: as §1

EPLC-272H = tested on: EPLC-272H
How it was run: as §1

H3255 = tested on: H3255
How it was run: as §1

HCC-44 = tested on: HCC-44
How it was run: as §1

HCC-827 = tested on: HCC-827
How it was run: as §1

LCLC-103H = tested on: LCLC-103H
How it was run: as §1

LCLC-97TM1 = tested on: LCLC-97TM1
How it was run: as §1

NCI-H1355 = tested on: NCI-H1355
How it was run: as §1

NCI-H1395 = tested on: NCI-H1395
How it was run: as §1

NCI-H1563 = tested on: NCI-H1563
How it was run: as §1

NCI-H1651 = tested on: NCI-H1651
How it was run: as §1

NCI-H1793 = tested on: NCI-H1793
How it was run: as §1

NCI-H1944 = tested on: NCI-H1944
How it was run: as §1

NCI-H1993 = tested on: NCI-H1993
How it was run: as §1

NCI-H2085 = tested on: NCI-H2085
How it was run: as §1

NCI-H2087 = tested on: NCI-H2087
How it was run: as §1

NCI-H23 = tested on: NCI-H23
How it was run: as §1

NCI-H2405 = tested on: NCI-H2405
How it was run: as §1

NCI-H322M = tested on: NCI-H322M
How it was run: as §1

NCI-H520 = tested on: NCI-H520
How it was run: as §1

NCI-H650 = tested on: NCI-H650
How it was run: as §1

SK-MES-1 = tested on: SK-MES-1
How it was run: as §1

UMC-11 = tested on: UMC-11
How it was run: as §1

## C[C@@H]1CN(CC(=O)Nc2ccc3c(c2)Cc2cccc(-c4cc(=O)cc(N5CCOCC5)o4)c2S3)C[C@H](C)O1 + COc1cccc2cc(-c3nc([C@H]4CC[C@H](C(=O)O)CC4)n4ncnc(N)c34)[nH]c12 [OSI-027] (partner 0.5 µM)
ChaGo-K-1; first compound 0.04 µM
  relative viability: 0.525
ChaGo-K-1; first compound 0.1265 µM
  relative viability: 0.593
ChaGo-K-1; first compound 0.4 µM
  relative viability: 0.531
ChaGo-K-1; first compound 4 µM
  relative viability: 0.533
EMC-BAC-2; first compound 0.04 µM
  relative viability: 0.392
EMC-BAC-2; first compound 0.1265 µM
  relative viability: 0.429
EMC-BAC-2; first compound 0.4 µM
  relative viability: 0.385
EMC-BAC-2; first compound 4 µM
  relative viability: 0.39
EPLC-272H; first compound 0.04 µM
  relative viability: 0.279
EPLC-272H; first compound 0.1265 µM
  relative viability: 0.334
EPLC-272H; first compound 0.4 µM
  relative viability: 0.301
EPLC-272H; first compound 4 µM
  relative viability: 0.304
H3255; first compound 0.04 µM
  relative viability: 0.599
H3255; first compound 0.1265 µM
  relative viability: 0.624
H3255; first compound 0.4 µM
  relative viability: 0.48
H3255; first compound 4 µM
  relative viability: 0.491
HCC-44; first compound 0.04 µM
  relative viability: 0.328
HCC-44; first compound 0.1265 µM
  relative viability: 0.707
HCC-44; first compound 0.4 µM
  relative viability: 0.335
HCC-44; first compound 4 µM
  relative viability: 0.305
HCC-827; first compound 0.04 µM
  relative viability: 0.775
HCC-827; first compound 0.1265 µM
  relative viability: 0.738
HCC-827; first compound 0.4 µM
  relative viability: 0.509
HCC-827; first compound 4 µM
  relative viability: 0.746
LCLC-103H; first compound 0.04 µM
  relative viability: 0.405
LCLC-103H; first compound 0.1265 µM
  relative viability: 0.379
LCLC-103H; first compound 0.4 µM
  relative viability: 0.387
LCLC-103H; first compound 4 µM
  relative viability: 0.476
LCLC-97TM1; first compound 0.04 µM
  relative viability: 0.45
LCLC-97TM1; first compound 0.1265 µM
  relative viability: 0.601
LCLC-97TM1; first compound 0.4 µM
  relative viability: 0.408
LCLC-97TM1; first compound 4 µM
  relative viability: 0.509
NCI-H1355; first compound 0.04 µM
  relative viability: 0.447
NCI-H1355; first compound 0.1265 µM
  relative viability: 0.472
NCI-H1355; first compound 0.4 µM
  relative viability: 0.321
NCI-H1355; first compound 4 µM
  relative viability: 0.335
NCI-H1395; first compound 0.04 µM
  relative viability: 0.782
NCI-H1395; first compound 0.1265 µM
  relative viability: 0.655
NCI-H1395; first compound 0.4 µM
  relative viability: 0.539
NCI-H1395; first compound 4 µM
  relative viability: 0.612
NCI-H1563; first compound 0.04 µM
  relative viability: 0.765
NCI-H1563; first compound 0.1265 µM
  relative viability: 0.71
NCI-H1563; first compound 0.4 µM
  relative viability: 0.689
NCI-H1563; first compound 4 µM
  relative viability: 0.72
NCI-H1651; first compound 0.04 µM
  relative viability: 0.694
NCI-H1651; first compound 0.1265 µM
  relative viability: 0.836
NCI-H1651; first compound 0.4 µM
  relative viability: 0.741
NCI-H1651; first compound 4 µM
  relative viability: 0.585
NCI-H1793; first compound 0.04 µM
  relative viability: 0.256
NCI-H1793; first compound 0.1265 µM
  relative viability: 0.272
NCI-H1793; first compound 0.4 µM
  relative viability: 0.247
NCI-H1793; first compound 4 µM
  relative viability: 0.149
NCI-H1944; first compound 0.04 µM
  relative viability: 0.386
NCI-H1944; first compound 0.1265 µM
  relative viability: 0.475
NCI-H1944; first compound 0.4 µM
  relative viability: 0.389
NCI-H1944; first compound 4 µM
  relative viability: 0.336
NCI-H1993; first compound 0.04 µM
  relative viability: 0.578
NCI-H1993; first compound 0.1265 µM
  relative viability: 0.603
NCI-H1993; first compound 0.4 µM
  relative viability: 0.597
NCI-H1993; first compound 4 µM
  relative viability: 0.551
NCI-H2085; first compound 0.04 µM
  relative viability: 0.97
NCI-H2085; first compound 0.1265 µM
  relative viability: 0.611
NCI-H2085; first compound 0.4 µM
  relative viability: 0.476
NCI-H2085; first compound 4 µM
  relative viability: 0.477
NCI-H2087; first compound 0.04 µM
  relative viability: 0.847
NCI-H2087; first compound 0.1265 µM
  relative viability: 0.521
NCI-H2087; first compound 0.4 µM
  relative viability: 0.463
NCI-H2087; first compound 4 µM
  relative viability: 0.457
NCI-H23; first compound 0.04 µM
  relative viability: 0.732
NCI-H23; first compound 0.1265 µM
  relative viability: 0.572
NCI-H23; first compound 0.4 µM
  relative viability: 0.558
NCI-H23; first compound 4 µM
  relative viability: 0.426
NCI-H2405; first compound 0.04 µM
  relative viability: 0.632
NCI-H2405; first compound 0.1265 µM
  relative viability: 0.699
NCI-H2405; first compound 0.4 µM
  relative viability: 0.528
NCI-H2405; first compound 4 µM
  relative viability: 0.615
NCI-H322M; first compound 0.04 µM
  relative viability: 0.485
NCI-H322M; first compound 0.1265 µM
  relative viability: 0.643
NCI-H322M; first compound 0.4 µM
  relative viability: 0.5
NCI-H322M; first compound 4 µM
  relative viability: 0.493
NCI-H520; first compound 0.04 µM
  relative viability: 0.272
NCI-H520; first compound 0.1265 µM
  relative viability: 0.227
NCI-H520; first compound 0.4 µM
  relative viability: 0.221
NCI-H520; first compound 4 µM
  relative viability: 0.264
NCI-H650; first compound 0.04 µM
  relative viability: 0.491
NCI-H650; first compound 0.1265 µM
  relative viability: 0.443
NCI-H650; first compound 0.4 µM
  relative viability: 0.51
NCI-H650; first compound 4 µM
  relative viability: 0.36
SK-MES-1; first compound 0.04 µM
  relative viability: 0.664
SK-MES-1; first compound 0.1265 µM
  relative viability: 0.566
SK-MES-1; first compound 0.4 µM
  relative viability: 0.503
SK-MES-1; first compound 4 µM
  relative viability: 0.49
UMC-11; first compound 0.04 µM
  relative viability: 0.51
UMC-11; first compound 0.1265 µM
  relative viability: 0.464
UMC-11; first compound 0.4 µM
  relative viability: 0.472
UMC-11; first compound 4 µM
  relative viability: 0.352
